For this experiment, the system named is tetrabenazine-induced depression. Kind of experiment: Antagonism (prevention) of tetrabenazine-induced sedation and depression in mice, orally. As to conditions: Mus musculus, 1 h, tetrabenazine 32 mg/kg i.p. 30 min after compound. In kind it is in vivo, mice (Carworth CF1 S female). An excerpt: A standard procedure for detecting and comparing the antidepressant activity of the compounds of this invention, for which there is good correlation with human efficacy, is the prevention of tetrabenazine-induced sedation and depression in mice. (Everett, "The Dopa Response Potentiation Test and Its Use in Screening for Antidepressant Drugs", pp. 164-167 in Antidepressant Drugs [Proceedings of the First International Symposium], S. Garattini and M. N. G. Dukes (editors), 1967).
Groups of 10 Carworth CF1 S female mice, 18-21 g each, each fasted 1.5 h and were intubated with antagonist compounds at oral doses, such as 0, 1, 3, 9, 27 and 81 mg/kg in 0.20 mL of 1% Methocel® (methylcellulose).The mice were challenged 30 minutes later with tetrabenazine (as the methanesulfonate), 32 mg/kg intraperitoneally (dissolved in 0.20 mL 0.05% aqueous KCl at pH 2.0). One hour after administration of antagonist (30 minutes after administration of tetrabenazine) the mice were examined for signs of exploratory activity and ptosis (eye lid closure). Normal exploratory activity (relief from sedation) was recorded when a mouse, lifted by the tail from a group of 10 in a testing box and placed on a stainless steel testing box lid (12.5 inch (31.8 cm) by 8 inch (20.3 cm) with 0.33 inch mesh), either turned its head horizontally 30° in both directions or moved to the edge of the screen within 10 seconds after being placed on the screen. Relief from ptosis was recorded when, at exactly two seconds after placing the mouse facing the observer, lid closure was less than 50% in both eyes.

The mark [1] stands for this setting: po, read-out: ORAL ED50 for prevention of exploratory loss, mice, oral, at one hour post-drug.
Where [2] appears, read: po, read-out: ORAL ED50 for prevention of ptosis, mice, oral, at one hour post-drug.

Read-outs that look alike come from different tables or passages of the source.

As for `COc1cccc(C2(C3(O)CCCCC3)CCN(C)CC2)c1OC` [Example 23, 1-[1'-Methyl-4'-(2",3"-dimethoxyphenyl)-4'-piperidinyl]cyclohexanol], the ED50 – broadly, the dose that gives a 50% effect, or the effect in half of the subjects – reads like this: under setting [1], 38 mg/kg; under setting [2], 17 mg/kg.

As to `CSc1ccc(C2(C(C)(C)O)CCN(C)CC2)cc1` [Example 21, 4-(4'-Methylthiophenyl)-α,α,1-trimethyl-4-piperidinemethanol], the ED50 is, setting by setting: under setting [1], 1.3 mg/kg; under setting [2], 1.3 mg/kg.

In the case of `COc1cccc(C2(C3(O)CCCC3)CCN(C)CC2)c1OC` [Example 3, 1-[1'-Methyl-4'-(2",3"-dimethoxyphenyl)-4'-piperidinyl]cyclopentanol], the ED50 under setting [1] was 14 mg/kg and the median effective dose (ED50) under setting [2] is 2.8 mg/kg.

As to `Cc1cc(C)cc(C2(C(C)(C)O)CCN(C)CC2)c1` [Example 12, 4-(5'-m-Xylyl)-α,α,1-trimethyl-4-piperidinemethanol], the ED50 was 0.11 mg/kg under setting [1] and 0.064 mg/kg under setting [2].

As to `COc1cccc(C2(C3(O)CCCCC3)CCN(C)CC2)c1` [Example 35, 1[1'-Methyl-4'-(3"-methoxyphenyl)-4'-piperidine]cyclohexanol], the ED50 is 1.4 mg/kg under setting [1] and 1.1 mg/kg under setting [2].

Regarding `Cc1cccc(C2(C(C)(C)O)CCN(C)C(C)C2)c1` (stereo not drawn) [Example 44, 4-(3'-Tolyl)-α,α,1,2-tetramethyl-4-piperidinemethanol], the median effective dose (ED50) runs as follows: under setting [1], 0.33 mg/kg; under setting [2], 0.33 mg/kg.

Take `CN(C)CCCN1c2ccccc2CCc2ccccc21` [Imipramine, reference compound]: the ED50 amounted to 2.2 mg/kg under setting [1] and 0.94 mg/kg under setting [2].

With `COc1cccc(C2(C3(O)CCCC3)CCN(Cc3ccccc3)CC2)c1OC` [Example 38, 1-[1'-Benzyl-4'-(2",3"-dimethoxyphenyl)-4'-piperidinyl]cyclopentanol], the ED50 is above 81 mg/kg under setting [1] and above 81 mg/kg under setting [2].

With `Cc1ccc(C2(C(C)(C)O)CCN(C)CC2)cc1` [Example 11, 4-(4'-Tolyl)-α,α,1-trimethyl-4-piperidinemethanol], the ED50 reads like this: under setting [1], 0.69 mg/kg; under setting [2], 0.57 mg/kg.

Regarding `CN(C)CCC=C1c2ccccc2CCc2ccccc21` [Amtriptyline, reference compound], the ED50 by setting is: (mice, oral, at one hour post-drug, read-out: ORAL ED50 for prevention of exploratory loss) 2.7 mg/kg; (mice, oral, at one hour post-drug, read-out: ORAL ED50 for prevention of ptosis) 0.7 mg/kg.

As for `COc1cccc(C2(C3(O)CCCCCCC3)CCN(C)CC2)c1` [Example 28, 1-[1'-Methyl-4'-(3"-methoxyphenyl)-4'-piperidinyl]cyclooctanol], the ED50 under setting [1] was 3.8 mg/kg and the median effective dose (ED50) under setting [2] turned out to be 1.7 mg/kg.

With `CN1CCC(c2ccccc2)(C(C)(C)O)CC1` [Example 1, 4-Phenyl-α,α,1-trimethyl-4-piperidinemethanol], the ED50 stood at 5.6 mg/kg under setting [1] and 0.78 mg/kg under setting [2].

For the molecule `COc1cccc(C2(C3(O)CCCCCC3)CCN(C)CC2)c1` [Example 27, 1-[1'-Methyl-4'-(3"-methoxyphenyl)-4'-piperidinyl]cycloheptanol], the ED50 was 1.4 mg/kg under setting [1] and 0.9 mg/kg under setting [2].

For the molecule `COc1cccc(C2(C3(O)CCCC3)CCN(C)CC2)c1` [Example 34, 1[1'-Methyl-4'-(3"-methoxyphenyl)-4'-piperidine]cyclopentanol], the ED50 runs as follows: under setting [1], 0.48 mg/kg; under setting [2], 0.45 mg/kg.

`COc1ccc(OC)c(C2(C(C)(C)O)CCN(C)CC2)c1` [Example 29, 4-(2',5'-Dimethoxyphenyl)-α,α,1-trimethyl-4-piperidinemethanol]: the ED50 turned out to be 0.99 mg/kg under setting [1] and 0.86 mg/kg under setting [2].

`COc1cccc(C2(C(C)(C)O)CCN(C)CC2)c1OC` [Example 20, 4-(2',3'-Dimethoxyphenyl)-α,α,1-trimethyl-4-piperidinemethanol]: the 50% effective dose (ED50) runs as follows: under setting [1], 4.6 mg/kg; under setting [2], 2.1 mg/kg.

`CN1CCC(c2ccc(N(C)C)cc2)(C(C)(C)O)CC1` [Example 33, 4-(4'-Dimethylaminophenyl)-α,α,1-trimethyl-4-piperidinemethanol]: the ED50 was 0.78 mg/kg under setting [1] and 0.35 mg/kg under setting [2].

Consider `COc1cccc(C2(C3(O)CCC3)CCN(C)CC2)c1` [Example 22, 1-[1'-Methyl-4'-(3"-methoxyphenyl)-4'-piperidinyl]cyclobutanol], for which the ED50 is 0.92 mg/kg under setting [1] and 0.67 mg/kg under setting [2].

Consider `CCOc1cccc(C2(C(C)(C)O)CCN(C)CC2)c1` [Example 40, 4-(3'-Ethoxyphenyl)-α,α,1-trimethyl-4-piperidinemethanol], for which the 50% effective dose (ED50) under setting [1] amounted to 0.9 mg/kg and the ED50 under setting [2] stood at 0.9 mg/kg.

In the case of `COc1cccc(C2(C(C)(C)O)CCN(C)CC2C)c1` (stereo not drawn) [Example 43, 4-(3'-Methoxyphenyl)-α,α,1,3-tetramethyl-4-piperidinemethanol], the ED50 was found to be 7.2 mg/kg under setting [1] and 5.8 mg/kg under setting [2].

On to `Cc1ccc(C2(C(C)(C)O)CCN(C)CC2)s1` [Example 25, 4-(5'-Methyl-2'-thienyl)-α,α,1-trimethyl-4-piperidinemethanol], for which the ED50 worked out at 0.99 mg/kg under setting [1] and 0.69 mg/kg under setting [2].

On to `CN1CCC(c2cccn2C)(C(C)(C)O)CC1` [Example 24, 4-(1'-Methyl-2'-pyrrolyl)-α,α,1-trimethyl-4-piperidinemethanol], for which the 50% effective dose (ED50) under setting [1] came out at 1.2 mg/kg and the ED50 under setting [2] turned out to be 0.78 mg/kg.

Take `CC(C)(O)C1(c2cccc(C(F)(F)F)c2)CCN2CCCC2C1` (stereo not drawn) [Example 45, 7-(3'-Trifluoromethylphenyl)-α,α-dimethyl-7-indolizidinemethano]: the 50% effective dose (ED50) under setting [1] was below 0.33 mg/kg and the 50% effective dose (ED50) under setting [2] came to 0.48 mg/kg.

For the molecule `COc1ccc(C2(C(C)(C)O)CCN(C)CC2)cc1` [Example 19, 4-(4'-Methoxyphenyl)-α,α,1-trimethyl-4-piperidinemethanol], the ED50 was 1.1 mg/kg under setting [1] and 0.33 mg/kg under setting [2].

As for `CN1CCC(c2ccc(F)cc2)(C(C)(C)O)CC1` [Example 5, 4-(4'-Fluorophenyl)-α,α,1-trimethyl-4-piperidinemethanol], the median effective dose (ED50) stood at 0.48 mg/kg under setting [1] and 0.33 mg/kg under setting [2].

As for `CN1CCC(c2cccnc2)(C(C)(C)O)CC1` [Example 26, 4-(3'-Pyridyl)-α,α,1-trimethyl-4-piperidinemethanol], the median effective dose (ED50) reads like this: under setting [1], 29 mg/kg; under setting [2], 18 mg/kg.

Regarding `COc1ccccc1C1(C(C)(C)O)CCN(C)CC1` [Example 15, 4-(2'-Methoxyphenyl)-α,α,1-trimethyl-4-piperidinemethanol], the 50% effective dose (ED50) under setting [1] was found to be 2.3 mg/kg and the ED50 under setting [2] is 0.57 mg/kg.

For the molecule `Cc1ccc(C2(C(C)(C)O)CCN(C)CC2)cc1C` [Example 13, 4-(4'-o-Xylyl)-α,α,1-trimethyl-4-piperidinemethanol], the ED50 was found to be 0.3 mg/kg under setting [1] and 0.23 mg/kg under setting [2].

Turning to `CC1CCC(O)(C2(c3cccc(C(F)(F)F)c3)CCN(C)CC2)C1` (racemic) [Example 46, (±)-cis and trans-3-Methyl-1-[1'-methyl-4'-(3"-trifluoromethylphenyl)-4'-piperidinyl]cyclopentanol], the ED50 by setting is: under setting [1], below 1 mg/kg; under setting [2], below 1 mg/kg.

For `CN1CCC(c2cccc(-c3ccccc3)c2)(C(C)(C)O)CC1` [Example 36, 4-(3'-Biphenylyl)-α,α,1-trimethyl-4-piperidinemethanol], the ED50 came out at 1.1 mg/kg under setting [1] and 0.66 mg/kg under setting [2].

As to `CCC(O)(CC)C1(c2cccc(OC)c2)CCN(C)CC1` [Example 18, 4-(3'-Methoxyphenyl)-α,α-diethyl-1-methyl-4-piperidinemethanol], the ED50 is, setting by setting: under setting [1], 0.71 mg/kg; under setting [2], 0.71 mg/kg.

For the molecule `COc1cccc(C2(C(C)(C)O)CCNCC2)c1` [Example 14, 4-(3'-Methoxyphenyl)-α,α-dimethyl-4-piperidinemethanol], the 50% effective dose (ED50) came out at 4.4 mg/kg under setting [1] and 2.7 mg/kg under setting [2].

As for `CN1CCC(c2ccc(-c3ccccc3)cc2)(C(C)(C)O)CC1` [Example 42, 4-(4'-Biphenylyl)-α,α,1-trimethyl-4-piperidinemethanol], the 50% effective dose (ED50) runs as follows: under setting [1], 1.5 mg/kg; under setting [2], 1 mg/kg.

As for `CC1CCC(O)(C2(c3cccc(C(F)(F)F)c3)CCN(C)CC2)C1` (single isomer, unassigned; (-)) [Example 47, (-)-cis and trans-3-Methyl-1-[1'-methyl-4'-(3"-trifluoromethylphenyl)-4'-piperidinyl]cyclopentanol], the 50% effective dose (ED50) under setting [1] is below 1 mg/kg and the 50% effective dose (ED50) under setting [2] was below 1 mg/kg.

As to `Cc1ccccc1C1(C(C)(C)O)CCN(C)CC1` [Example 9, 4-(2'-Tolyl)-α,α,1-trimethyl-4-piperidinemethanol], the ED50 is 0.48 mg/kg under setting [1] and 0.33 mg/kg under setting [2].

Source of the values: patent publication US4485109A, “4-Aryl-4-piperidinecarbinols” (E. I. Du Pont de Nemours and Company, priority 1983, dated 1984).
